Assay results: US20100104552A1, “ANTIBIOTIC SYNERGISM” (priority 2008, published 2010)

Assays:
Type in all cases: cell-based
bacterial membrane [1] = test: Trans-membrane potential of exposed bacteria; details: bacteria exposed to the defensin
[2] = system: vancomycin-resistant Staphylococcus aureus (VRSA); test: Cross-resistance with vancomycin resistance
bacterial cells = test: Traditional incorporation studies
bacterial membrane [3] = test: K+-efflux of exposed bacteria; details: bacteria exposed to the defensin

Substance: GFGCNGPWNEDDLRCHNHCKSIKGYKGGYCAKGGFVCKCY [Defensin2114]
- trans-membrane potential (bacterial membrane [1]): remained intact
- cross-resistance [2]: No cross-resistance
- incorporation of cell wall precursors (bacterial cells): severely affected
- K+-efflux (bacterial membrane [3]): No K^+-efflux could be detected

Substance: Plectasin
- trans-membrane potential (bacterial membrane [1]): remained intact
- cross-resistance [2]: No cross-resistance
- incorporation of cell wall precursors (bacterial cells): severely affected
- K+-efflux (bacterial membrane [3]): No K^+-efflux could be detected
